Structure (SMILES): O.O=c1c(O)c(-c2ccc(O)cc2)oc2cc(O)cc(O)c12
- solubility (mole fraction) (in ethanol, 283.15 K): 0.00668
- solubility (mole fraction) (in ethanol, 288.15 K): 0.00812
- solubility (mole fraction) (in ethanol, 293.15 K): 0.00993
- solubility (mole fraction) (in ethanol, 298.15 K): 0.0121
- solubility (mole fraction) (in ethanol, 303.15 K): 0.0146
- solubility (mole fraction) (in ethanol, 308.15 K): 0.0178
- solubility (mole fraction) (in ethanol, 313.15 K): 0.0212
- solubility (mole fraction) (in ethanol, 318.15 K): 0.025
- solubility (mole fraction) (in ethanol, 323.15 K): 0.0295
- solubility (mole fraction) (in isopropanol, 283.15 K): 0.00356
- solubility (mole fraction) (in isopropanol, 288.15 K): 0.00502
- solubility (mole fraction) (in isopropanol, 293.15 K): 0.00676
- solubility (mole fraction) (in isopropanol, 298.15 K): 0.00907
- solubility (mole fraction) (in isopropanol, 303.15 K): 0.0126
- solubility (mole fraction) (in isopropanol, 308.15 K): 0.0171
- solubility (mole fraction) (in isopropanol, 313.15 K): 0.0222
- solubility (mole fraction) (in isopropanol, 318.25 K): 0.0281
- solubility (mole fraction) (in isopropanol, 323.15 K): 0.036
- solubility (mole fraction) (in n-butanol, 283.15 K): 0.00626
- solubility (mole fraction) (in n-butanol, 288.15 K): 0.00772
- solubility (mole fraction) (in n-butanol, 293.15 K): 0.00935
- solubility (mole fraction) (in n-butanol, 298.15 K): 0.0113
- solubility (mole fraction) (in n-butanol, 303.15 K): 0.0137
- solubility (mole fraction) (in n-butanol, 308.15 K): 0.0164
- solubility (mole fraction) (in n-butanol, 313.15 K): 0.0197
- solubility (mole fraction) (in n-butanol, 318.15 K): 0.0236
- solubility (mole fraction) (in n-butanol, 323.15 K): 0.028
- solubility (mole fraction) (in n-propanol, 283.15 K): 0.00621
- solubility (mole fraction) (in n-propanol, 288.15 K): 0.00727
- solubility (mole fraction) (in n-propanol, 293.15 K): 0.00861
- solubility (mole fraction) (in n-propanol, 298.15 K): 0.0103
- solubility (mole fraction) (in n-propanol, 303.15 K): 0.0121
- solubility (mole fraction) (in n-propanol, 308.15 K): 0.014
- solubility (mole fraction) (in n-propanol, 313.15 K): 0.0162
- solubility (mole fraction) (in n-propanol, 318.15 K): 0.0188
- solubility (mole fraction) (in n-propanol, 323.15 K): 0.0217
- solubility (mole fraction) (in sec-butanol, 283.15 K): 0.00599
- solubility (mole fraction) (in sec-butanol, 288.15 K): 0.00758
- solubility (mole fraction) (in sec-butanol, 293.15 K): 0.00926
- solubility (mole fraction) (in sec-butanol, 298.15 K): 0.0114
- solubility (mole fraction) (in sec-butanol, 303.15 K): 0.0138
- solubility (mole fraction) (in sec-butanol, 308.15 K): 0.0164
- solubility (mole fraction) (in sec-butanol, 313.15 K): 0.0196
- solubility (mole fraction) (in sec-butanol, 318.15 K): 0.0236
- solubility (mole fraction) (in sec-butanol, 323.15 K): 0.0285

Source: BigSolDB 2.1
